Measured values reported in ChEMBL document CHEMBL1155585, “Cypellocarpins A-C, phenol glycosides esterified with oleuropeic acid, from Eucalyptus cypellocarpa” (J Nat Prod, 2000).

What was measured:
[1] = Cytotoxicity against human Raji cells assessed as cell viability at 1000 molar ratio/TPA; format: cell-based; conditions: read-out: Activity
Mus musculus [2] = species: Mus musculus; assay: Antitumor activity against (+/-)-(E)-4-methyl-2-[(E)-hydroxyimino]-6-methoxy-5-nitro-3-hexenamide/TPA-induced carcinogenesis in mouse assessed as reduction in number of tumor bearing mouse at 50 molar ratio/TPA after 20 weeks relative to control; format: functional; set-up: scale not given: the % may be the effect or the level left
Mus musculus [3] = species: Mus musculus; assay: Antitumor activity against (+/-)-(E)-4-methyl-2-[(E)-hydroxyimino]-6-methoxy-5-nitro-3-hexenamide/TPA-induced carcinogenesis in mouse assessed as reduction in number of tumor bearing mouse at 50 molar ratio/TPA after 10 weeks relative to control; format: functional; set-up: scale not given: the % may be the effect or the level left

SMILES | viability at 1000 molar ratio/TPA [1] [%] | Activity (Mus musculus [2]) [%] | Activity (Mus musculus [3]) [%]
CC1(O)CC(=O)c2c(O)cc(O[C@@H]3O[C@H](COC(=O)C4=CC[C@H](C(C)(C)O)CC4)[C@@H](O)[C@H](O)[C@H]3O)cc2O1 (stereo partly drawn) [CYPELLOCARPIN B] | 70 | 58 | 30
CC(C)(O)[C@H]1CC=C(C(=O)OC[C@H]2O[C@@H](Oc3cc(C(=O)O)cc(O)c3O)[C@H](O)[C@@H](O)[C@@H]2O)CC1 [CYPELLOCARPIN A] | 70 |  | 
Cc1cc(=O)c2c(O)cc(O[C@@H]3O[C@H](COC(=O)C4=CC[C@H](C(C)(C)O)CC4)[C@@H](O)[C@H](O)[C@H]3O)cc2o1 [CYPELLOCARPA C] | 70 |  | 30
Cc1c(O[C@@H]2O[C@H](CO)[C@@H](O)[C@H](O)[C@H]2O)c(C=O)c(O)c2c1OC(C)(C)C=C2 | 60 |  | 30
